Measured values from patent US20220274997A1, “PIM KINASE INHIBITOR COMPOSITIONS AND USES THEREOF” (Snap Bio, Inc., priority 2019, published 2022).

How the values were obtained:
PIM2 = target: T1, PIM2 (Homo sapiens, UniProt Q9P1W9); test: LANCE Ultra kinase assay, PIM2; assay type: biochemical
T1 construct: purchased ProQinase, Freiburg, Germany 0223-0000-1
Text: (§1) The second assay used was Perkin Elmer's LANCE® Ultra kinase assay which uses a ULight™-labeled peptide substrate and an appropriate Europium-labeled anti-phospho antibody. When the substrate becomes phosphorylated by a kinase of interest, the phosphorylated site on the substrate is recognized by the Europium-labeled anti-phospho antibody. […] The intensity of light emission is proportional to the level of ULight peptide phosphorylation. A kinase inhibitor reduces the FRET signal, thus providing an accurate and sensitive measure of inhibition potency.
(§2) The assay was performed in 384-well plates in two steps: PIM kinases were mixed with the ULight-substrate (CREBtide) in buffer and incubated for 10 min. Subsequently, ATP and molecules of the present disclosure were added in a kinase buffer at the appropriate concentration and the reactions were incubated for 1 hour, at room temperature in the dark. • After 1 h EDTA was added to stop the kinase reaction, Eu-W1024-labeled anti-phosphoserine-CREB (Ser133) Antibody (anti-phosphoCREBtide specific antibody) was added to the reaction in LANCE Detection buffer. The mixture was allowed to incubate for 30 min to allow binding of the antibody to the phosphorylated site before the plate was read using a Tecan microplate reader
(§3) Kinase Assay Buffer—50 mM HEPES pH7.0.1 mM EGTA, 10 mM MgCl2, 0.01% BRU-35.
(§4) The inhibitory activity of each compound against PIM kinases was measured with the LANCE® Ultra Kinase Assays by ChemDiv, Inc. (San Diego, Calif.).

PIM3 = target: T2, PIM3 (Homo sapiens, UniProt Q86V86); test: LANCE Ultra kinase assay, PIM3; assay type: biochemical; conditions: LANCE assay
T2 construct: purchased SignalChem, Richmond, Canada P37-10BG
Text: as §1, §2, §3, §4

HepG2 = test: CellTiter-Glo cancer cell growth inhibition, HepG2; assay type: cell-based, human; conditions: Homo sapiens, HepG2, 72 h
Text: (§5) The CellTiter-Glo® Luminescent Cell Viability Assay is a sensitive homogeneous method to determine the number of viable cells in culture, Detection is based on using the luciferase reaction to measure the amount of ATP from viable cells. The amount of ATP in cells correlates with cell viability. Within minutes after a loss of membrane integrity, cells lose the ability to synthesize ATP, and endogenous ATPases destroy any remaining ATP; thus the levels of ATP fall precipitously. The CellTiter-Glo® Reagent does three things upon addition to cells. It lyses cell membranes to release ATP; it inhibits endogenous ATPases, and it provides luciferin, luciferase and other reagents necessary to measure ATP using a bioluminescent reaction. The unique properties of a proprietary stable luciferase.
(§6) All assays were performed by Reaction Biology Corporation (Malvern, Pa.) or ChemDiv, Inc. (San Diego, Calif.). All cell lines were purchased from American Type Culture Collection (ATCC, Manassas, Va.), except Huh 7 (RIKEN, Toyo, Japan) and HepaRG (Life Technologies, Carlsbad, Calif.).
(§7) Stock solutions ([…]) were diluted with cell culture media to produce 500× serial dilutions and […] of final compound dilutions were added to cells in assay plates to screen a series of 10 doses starting at […]. Final DMSO concentration was 0.2%. Assay plates are centrifuged at 100 rpm, 1 minute and kept at 37° C., 5% CO2, humidified atmosphere. […] Luminescence intensity was measured for each well using the Tecan M 1000 microplate reader after 5 min of incubation with CellTiter-Glo Reagent. The number of viable cells in culture was determined based on quantitation of the ATP present in each culture well. […] The EC50 curves were plotted and […] values were calculated using the GraphPad Prism 4 program based on a sigmoidal dose-response equation.

Huh7 = test: CellTiter-Glo cancer cell growth inhibition, Huh7; assay type: cell-based; conditions: Homo sapiens, Huh-7, 72 h
Text: as §5, §6, §7

DU-145 = test: CellTiter-Glo cancer cell growth inhibition, DU-145; assay type: cell-based; conditions: Homo sapiens, DU-145, 72 h
Text: as §5, with “luciferase. There is a linear relationship (r2=0.99) between the luminescent signal and the number of cells from 0 to 50.000 cells per well.” for “luciferase.”
All assays were performed by Reaction Biology Corporation (Malvern, Pa.) or ChemDiv, Inc. (San Diego, Calif.). […]
Conditions: 37° C., air 95%; HEPA-filtered carbon dioxide (CO2) 5%, humidified atmosphere. • Cells were grown in 175 cm^2 flasks to 80-90% of confluency. • Culture media was aspirated and cell layer was briefly rinsed with Versen solution to remove all traces of serum. • 2 mL of accutase was added to cells. • Flasks were retuned to incubator for 5 min to allow cell detachment. • Add 6.0 mL of complete growth medium. • Single cell suspension was created by gently pipetting. • Cells were counted using a Hematocytometer and a suspension with the desired cell concentration was prepared. […]
Stock solutions ([…]) were diluted with cell culture media to produce 500× serial dilutions and […] of final compound dilutions were added to cells in assay plates to screen a series of 10 doses starting at 100 mM. […] Luminescence intensity was measured for each well using the Tecan M 1000 microplate reader after 5 min of incubation with CellTiter-Glo Reagent. The number of viable cells in culture was determined based on quantitation of the ATP present in each culture well. […]

T1 sequence (Q9P1W9 whole entry): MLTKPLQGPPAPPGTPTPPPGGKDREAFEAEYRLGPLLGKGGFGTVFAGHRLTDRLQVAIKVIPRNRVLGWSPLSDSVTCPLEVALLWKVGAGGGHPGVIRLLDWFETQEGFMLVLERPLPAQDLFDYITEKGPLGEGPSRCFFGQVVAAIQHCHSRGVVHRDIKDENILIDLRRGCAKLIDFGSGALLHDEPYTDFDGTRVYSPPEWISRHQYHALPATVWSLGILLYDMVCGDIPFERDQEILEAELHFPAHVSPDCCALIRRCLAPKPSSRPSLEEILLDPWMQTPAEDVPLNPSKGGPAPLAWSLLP

| IC50 (PIM2; ATP 1 mM) | IC50 (PIM3; ATP 1 mM) | EC50 (HepG2) | EC50 (Huh7) | EC50 (DU-145) | IC50 (PIM2; ATP 0.1 mM) | IC50 (PIM3; ATP 0.1 mM) | SMILES |
| --- | --- | --- | --- | --- | --- | --- | --- |
| 0.041 µM | 0.0095 µM | 0.076 µM | 0.041 µM | 0.041 µM | – | – | O=C1NC(=O)c2c1c1c3cc(F)c(O)cc3[nH]c1c1c2c2ccccc2n1CCN1CCOCC1 [Compound 18, 3-fluoro-2-hydroxy-12-(2-morpholin-4-ylethyl)-12,13-dihydro-5H-indolo[2,3-a]pyrrolo[3,4-c]carbazole-5,7(6H)-dione] |
| 0.0049 µM | 0.0043 µM | 0.034 µM | 0.08 µM | 0.04 µM | 0.0032 µM | 0.001 µM | O=C1NC(=O)c2c1c1c3ccccc3[nH]c1c1c2c2cc(F)c(O)cc2n1CCN1CCOCC1 [Compound 19, 3-fluoro-2-hydroxy-13-(2-morpholin-4-ylethyl)-12,13-dihydro-5H-indolo[2,3-a]pyrrolo[3,4-c]carbazole-5,7(6H)-dione] |
